Experiment [1] deals with superoxide generation by FMLP-stimulated human neutrophils. As to the kind of experiment: Human neutrophil superoxide generation (FMLP-stimulated, cytochrome C reduction). The class given is cell-based. To be noted: pH 7.2, 37° C., preincubated 3 minutes, average, read-out: average IC50, inhibition of superoxide generation. On the procedure: The compounds of the invention are evaluated with respect to superoxide modulating activity according to the following assay procedure:
Superoxide generation by formyl-methionyl-leucyl-phenylalanine (FMLP)-stimulated neutrophils was quantitated by the reduction of cytochrome C (Badwey, J. A., Curnutte, J. T. and Karnovsky, M. L., cis-Polyunsaturated fatty acids induce high levels of superoxide production by human neutrophils. J. Biol. Chem. 256:12640-12643, 1981.) To 5 million neutrophils in 2.85 ml of Krebs-Ringer phosphate buffer, pH 7.2, 50 ul of inhibitor (in 10% DMSO/buffer), and 50 ul ferricytochrome C (5 mM, stock) were added and preincubated for 3 minutes at 37° C. Absorption measurements at 550 nm were recorded at start of preincubation. Fifty ul FMLP (6 uM, stock) was added to initiate reaction. A plateau was reached within 3 minutes and this reading minus the initial reading (before addition of FMLP) was used to calculate nanomoles of superoxide generated based on a molar extinction coefficient of 2.1×10^4 cm^-1 mole^-1.
Human neutrophils were isolated from freshly drawn blood of healthy donors. Two ml of 5% dextran (MW 200,000-300,000) in saline was added to 10 ml aliquots of blood, mixed and placed upright for 45 min. at 37° C. Approx. […] The red cell lysing procedure was repeated, the cells suspended in appropriate buffer (depending on assay) and counted.

Experiment [2] deals with T1, 5-lipoxygenase (Rattus norvegicus, UniProt P12527).
T1 construct: supernatant fraction of Rat Basophilic Leukemia Cell Homogenate (RBL-1) serves as a 5-lipoxygenase enzyme source; endogenous in cells; host or cells: RBL-1 (rat basophilic leukemia) cells, 100,000×g supernatant of homogenate
T1 sequence (P12527 1-673): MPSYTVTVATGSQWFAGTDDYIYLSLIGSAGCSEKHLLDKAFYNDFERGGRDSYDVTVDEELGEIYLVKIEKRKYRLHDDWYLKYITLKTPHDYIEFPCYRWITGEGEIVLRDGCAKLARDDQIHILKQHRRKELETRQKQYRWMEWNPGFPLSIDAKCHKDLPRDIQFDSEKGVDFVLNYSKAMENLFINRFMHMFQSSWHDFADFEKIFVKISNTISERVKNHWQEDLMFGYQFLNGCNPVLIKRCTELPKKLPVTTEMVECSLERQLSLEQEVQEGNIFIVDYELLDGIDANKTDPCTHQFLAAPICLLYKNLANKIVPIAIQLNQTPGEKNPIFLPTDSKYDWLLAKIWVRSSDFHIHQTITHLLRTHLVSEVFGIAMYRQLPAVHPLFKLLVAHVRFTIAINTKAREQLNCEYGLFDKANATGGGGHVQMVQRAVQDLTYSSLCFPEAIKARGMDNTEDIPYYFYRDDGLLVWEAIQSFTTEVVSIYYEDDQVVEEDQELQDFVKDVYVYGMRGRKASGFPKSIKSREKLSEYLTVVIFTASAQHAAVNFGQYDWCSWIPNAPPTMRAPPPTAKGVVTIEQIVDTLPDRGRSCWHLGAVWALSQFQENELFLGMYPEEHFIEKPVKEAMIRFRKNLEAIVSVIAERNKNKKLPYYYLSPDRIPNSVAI
As to the kind of experiment: Inhibition of 5-lipoxygenase, in vitro. The class given is biochemical. To be noted: 100,000×g supernatant of RBL-1 homogenate, [1-14C]-arachidonic acid and Ca++; average; read-out: average IC50, inhibition of 5-lipoxygenase (5-HETE synthesis). On the procedure: The compounds of the invention are evaluated with respect to 5-lipoxygenaseinhibition according to the following assay procedure.
The 100,000×g supernatant fraction of Rat Basophilic Leukemia Cell Homogenate (RBL-1) serves as a 5-lipoxygenase enzyme source. The enzyme is incubated with [1-^14 C)-arachidonic acid and Ca++ in the presence and absence of test compound. The product of 5-lipoxygenase, 5-hydroxyeicosa-tetraenoic acid (5-HETE), is separated by thin-layer chromatography and measured by radioactivity. A compound inhibiting 5-HETE synthesis by 30% or more is considered active at that concentration.

For experiment [3] the following is noted: compared with histamine; background information; cited from earlier work.

Molecules are shown by their SMILES. pIC50: −log10 of the molar value. Counter-ions that a name gives are not always drawn.

These results are taken from US5326907A, “2-aminoethanesulfonic acid derivatives of 3,5-disubstituted-4-hydroxyphenolic thioethers” (G. D. Searle & Co., priority 1992, dated 1994).

For `C[C@H](Sc1cc(C(C)(C)C)c(O)c(C(C)(C)C)c1)[C@@H](C)OCC(=O)NCCS(=O)(=O)O` (relative stereo) [Example 5, 2-[[[2S*-[[3,5-bis(1,1-dimethylethyl)-4-hydroxyphenyl]thio]-1R*-methylpropoxy]acetyl]amino]ethanesulfonic acid, potassium salt], the pIC50 was 4.06 in experiment [1] and 5.49 in experiment [2].
Take `CCCCC/C=C\C\C=C/C=C/C=C/[C@@H](SC[C@H](NC(=O)CC[C@H](N)C(=O)O)C(=O)NCC(=O)O)[C@@H](O)CCCC(=O)O` [LTC4]: the “potency in causing long lasting bronchoconstricting effects relative to histamine” value in experiment [3] is “at least 100 times”.
